ChEMBL document CHEMBL1201862, “PubChem BioAssay data set” (2004)
Active and inactive are the calls of the source.

Experiments:
[1] = MITF: Counter assay: A375 proliferation Measured in Cell-Based System Using Plate Reader - 2084-03_Inhibitor_Dose_DryPowder_Activity_Set8.; assay type: functional; conditions: A-375
[2] = cytotoxicity in MITF-independent A375 cells – cell-based, CellTiter-Glo luminescence, dry powder, set 9, counter-screen for MITF modulator project, dose response (AID 651591); assay type: functional; conditions: A-375
[3] = MITF Orthogonal Assay: SK-MEL-5 CTG Assay Measured in Cell-Based System Using Plate Reader - 2084-02_Inhibitor_Dose_DryPowder_Activity_Set7.; assay type: functional
[4] = inhibitors of TRPM1-promoter reporter in SK-MEL-5 – cell-based, luciferase, dry powder, set 8, MITF inhibitor project, dose response (AID 624430); assay type: functional
[5] = growth inhibition of MALME3 cells – cell-based, CellTiter-Glo luminescence, dry powder, set 5, orthogonal assay for MITF inhibitor project, dose response (AID 651584); assay type: functional; conditions: MALME-3
[6] = growth inhibition of SK-MEL-5 melanoma cells – cell-based, CellTiter-Glo luminescence, dry powder, set 8, orthogonal assay for MITF inhibitor project, dose response (AID 651586); assay type: functional
[7] = inhibitors of TRPM1-promoter reporter in SK-MEL-5 – cell-based, luciferase, dry powder, set 9, MITF inhibitor project, dose response (AID 651588); assay type: functional
[8] = MITF Orthogonal Assay: MALME3 CTG Assay Measured in Cell-Based System Using Plate Reader - 2084-04_Inhibitor_Dose_DryPowder_Activity_Set6.; assay type: functional; conditions: MALME-3
[9] = biological target: Metabotropic glutamate receptor 7 (Homo sapiens, UniProt Q14831); experiment: potentiation of glutamate EC20 at mGlu7 – cell-based, calcium mobilization, Galpha15, dose response (AID 743384); assay type: functional
Caspase-6 = biological target: T1, Caspase-6 (Homo sapiens, UniProt P55212); experiment: inhibition of CASP6 peptide cleavage – biochemical, VEID-R110 fluorescence, cherry-pick, dose response (AID 720632)
T1 sequence (P55212 whole entry): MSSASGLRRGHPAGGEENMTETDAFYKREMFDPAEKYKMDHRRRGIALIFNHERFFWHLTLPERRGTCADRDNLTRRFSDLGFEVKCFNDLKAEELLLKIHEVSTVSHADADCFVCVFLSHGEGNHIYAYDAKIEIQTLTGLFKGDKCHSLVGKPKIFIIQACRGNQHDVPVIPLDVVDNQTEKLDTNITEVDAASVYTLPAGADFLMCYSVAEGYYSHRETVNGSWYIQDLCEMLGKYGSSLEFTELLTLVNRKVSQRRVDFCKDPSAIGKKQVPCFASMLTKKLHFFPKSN

[10] = biological target: Glutathione-S-transferase (Schistosoma japonicum, UniProt Q26513); experiment: GST-antibody interaction or FRET quenching – biochemical, TR-FRET, artefact control for Vif-APOBEC3G degradation inhibitor project, dose response (AID 1117362); assay type: functional
Genome polyprotein = Genome polyprotein (dengue virus type 2, UniProt P29990); experiment: flavivirus cap methylation enzyme inhibition – biochemical, confirmation dose response, primary screen (AID 588689); assay type: functional
[11] = biological target: Tyrosyl-DNA phosphodiesterase 2 (Homo sapiens, UniProt O95551); experiment: potency against TDP2 phosphodiesterase activity – biochemical, epi absorbance, IC50, dose response (AID 743297)
[12] = biological target: Induced myeloid leukemia cell differentiation protein Mcl-1 (Homo sapiens, UniProt Q07820); assay type: functional
[13] = biological target: RNA-editing ligase 1, mitochondrial (Trypanosoma brucei brucei, UniProt P86926); experiment: inhibition of trypanosome RNA editing ligase – biochemical, fluorescence, Trypanosoma brucei, dose response (AID 1117295); assay type: functional
cells [14] = conditions: HEK293
[15] = IC50 of insulin release inhibition, rat insulinoma INS-1E line, 5 mM glucose, cell-based (AID 1117331); assay type: functional
Caspase-9 = Caspase-9 (Homo sapiens, UniProt P55211); experiment: inhibitors of purified CASP9 protease – biochemical, fluorescence, plate reader, cherry-picked samples, selectivity assay for caspase-6 inhibitor project, dose response (AID 743293)
[16] = biological target: T2, Mannose-6-phosphate isomerase (Homo sapiens, UniProt P34949); experiment: MPI inhibition at elevated mannose 6-phosphate – biochemical, fluorescence intensity, high mannose 6-phosphate, primary screen (AID 1220)
T2 sequence (P34949 whole entry): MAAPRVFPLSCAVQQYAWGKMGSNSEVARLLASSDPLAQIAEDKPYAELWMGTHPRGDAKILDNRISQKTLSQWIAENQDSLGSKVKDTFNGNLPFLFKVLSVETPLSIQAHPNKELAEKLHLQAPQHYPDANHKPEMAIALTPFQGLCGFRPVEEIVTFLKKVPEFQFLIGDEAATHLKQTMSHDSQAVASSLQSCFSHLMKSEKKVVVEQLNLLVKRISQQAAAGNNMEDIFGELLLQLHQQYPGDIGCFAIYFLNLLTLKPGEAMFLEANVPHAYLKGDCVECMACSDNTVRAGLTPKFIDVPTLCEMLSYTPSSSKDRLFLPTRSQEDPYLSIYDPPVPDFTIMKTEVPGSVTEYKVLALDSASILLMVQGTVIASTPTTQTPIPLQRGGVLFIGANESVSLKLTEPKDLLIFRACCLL

[17] = biological target: T3, Apoptotic protease-activating factor 1 (Homo sapiens, UniProt O14727); assay type: functional
T3 sequence (O14727 whole entry): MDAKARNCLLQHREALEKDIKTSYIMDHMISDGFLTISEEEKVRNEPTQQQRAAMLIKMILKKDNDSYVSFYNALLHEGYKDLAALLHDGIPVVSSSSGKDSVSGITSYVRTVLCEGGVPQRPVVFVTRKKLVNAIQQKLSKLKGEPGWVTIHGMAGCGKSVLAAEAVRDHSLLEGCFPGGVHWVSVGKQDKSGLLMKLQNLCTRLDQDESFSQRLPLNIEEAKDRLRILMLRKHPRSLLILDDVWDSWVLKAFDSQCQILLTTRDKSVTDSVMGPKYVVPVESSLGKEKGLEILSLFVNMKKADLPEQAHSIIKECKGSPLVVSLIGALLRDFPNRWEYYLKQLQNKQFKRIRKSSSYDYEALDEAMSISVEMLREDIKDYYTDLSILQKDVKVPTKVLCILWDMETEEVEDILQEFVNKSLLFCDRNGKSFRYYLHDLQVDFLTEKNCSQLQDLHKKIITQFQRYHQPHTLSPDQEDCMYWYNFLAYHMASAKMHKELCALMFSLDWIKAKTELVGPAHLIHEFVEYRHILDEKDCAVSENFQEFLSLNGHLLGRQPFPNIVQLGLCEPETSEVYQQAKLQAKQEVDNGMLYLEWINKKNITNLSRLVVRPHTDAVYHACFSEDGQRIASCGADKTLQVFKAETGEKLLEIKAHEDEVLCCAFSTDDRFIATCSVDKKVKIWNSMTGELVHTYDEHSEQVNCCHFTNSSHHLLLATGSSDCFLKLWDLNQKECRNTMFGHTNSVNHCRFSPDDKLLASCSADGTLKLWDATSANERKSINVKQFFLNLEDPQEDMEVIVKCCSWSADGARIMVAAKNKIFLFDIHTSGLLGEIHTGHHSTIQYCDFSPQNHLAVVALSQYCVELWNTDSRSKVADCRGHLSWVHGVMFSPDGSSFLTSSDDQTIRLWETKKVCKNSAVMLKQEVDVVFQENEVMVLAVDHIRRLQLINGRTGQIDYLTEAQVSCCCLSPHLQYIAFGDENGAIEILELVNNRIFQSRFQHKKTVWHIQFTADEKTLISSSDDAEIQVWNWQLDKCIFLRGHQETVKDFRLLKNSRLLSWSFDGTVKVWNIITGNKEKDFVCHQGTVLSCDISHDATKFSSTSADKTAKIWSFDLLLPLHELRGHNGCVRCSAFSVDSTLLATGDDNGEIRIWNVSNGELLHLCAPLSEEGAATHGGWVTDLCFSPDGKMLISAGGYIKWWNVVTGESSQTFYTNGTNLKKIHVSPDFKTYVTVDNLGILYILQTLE

Caspase-8 = Caspase-8 (Homo sapiens, UniProt Q14790); experiment: inhibitors of purified CASP8 protease – biochemical, Z-IETD-R110 fluorescence, cherry-picked samples, selectivity assay for caspase-6 inhibitor project, dose response (AID 743294)
Caspase-7 = Caspase-7 (Homo sapiens, UniProt P55210); experiment: caspase-7 enzyme inhibition, selectivity check – biochemical, DEVD-R110 fluorescence, cherry-pick, selectivity assay for caspase-6 inhibitor project, dose response (AID 743295); assay type: functional
Fibrinogen beta chain [18] = biological target: T4, Fibrinogen beta chain (Homo sapiens, UniProt P02675); experiment: Fluorescence polarization-based biochemical high throughput dose response assay to identify inhibitors that disrupt the binding of a cyclic peptide (Tn7) to the fibrin proteolytic product D-Dimer and fragment E complex [DD(E )].
Fibrinogen beta chain [19] = biological target: T4, Fibrinogen beta chain; experiment: Fluorescence polarization-based biochemical high throughput dose response assay to identify inhibitors that disrupt the binding of a cyclic peptide (Tn6) to the fibrin proteolytic product D-Dimer and fragment E complex [DD(E )].
[20] = biological target: T5, Oxysterols receptor LXR-beta (Homo sapiens, UniProt P55055); experiment: LXR agonists, Gal4 luciferase reporter, dose response, counter-screen for ssDAF-12 agonist project, cell-based, luminescence, HEK293, S. stercoralis campaign (AID 720737); assay type: functional; conditions: read-out: IC50 (the source's name)
T5 sequence (P55055 whole entry): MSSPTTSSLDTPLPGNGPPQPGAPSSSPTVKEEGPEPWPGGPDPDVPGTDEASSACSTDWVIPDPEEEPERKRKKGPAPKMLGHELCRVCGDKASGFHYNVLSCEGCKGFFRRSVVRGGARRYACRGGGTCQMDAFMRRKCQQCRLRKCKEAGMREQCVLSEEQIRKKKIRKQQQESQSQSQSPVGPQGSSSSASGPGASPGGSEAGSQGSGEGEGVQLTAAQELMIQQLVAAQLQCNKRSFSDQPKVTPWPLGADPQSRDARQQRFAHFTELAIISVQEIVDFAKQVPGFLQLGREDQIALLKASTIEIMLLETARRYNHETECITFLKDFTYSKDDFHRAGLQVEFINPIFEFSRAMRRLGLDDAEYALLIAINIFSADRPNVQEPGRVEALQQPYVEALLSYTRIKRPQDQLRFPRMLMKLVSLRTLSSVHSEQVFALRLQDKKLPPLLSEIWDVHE

Estrogen receptor = biological target: T6, Estrogen receptor (Homo sapiens, UniProt P03372); experiment: ERα coactivator recruitment enhancers – biochemical, TR-FRET, ERα LBD, dose response (AID 737)
T6 sequence (P03372 whole entry): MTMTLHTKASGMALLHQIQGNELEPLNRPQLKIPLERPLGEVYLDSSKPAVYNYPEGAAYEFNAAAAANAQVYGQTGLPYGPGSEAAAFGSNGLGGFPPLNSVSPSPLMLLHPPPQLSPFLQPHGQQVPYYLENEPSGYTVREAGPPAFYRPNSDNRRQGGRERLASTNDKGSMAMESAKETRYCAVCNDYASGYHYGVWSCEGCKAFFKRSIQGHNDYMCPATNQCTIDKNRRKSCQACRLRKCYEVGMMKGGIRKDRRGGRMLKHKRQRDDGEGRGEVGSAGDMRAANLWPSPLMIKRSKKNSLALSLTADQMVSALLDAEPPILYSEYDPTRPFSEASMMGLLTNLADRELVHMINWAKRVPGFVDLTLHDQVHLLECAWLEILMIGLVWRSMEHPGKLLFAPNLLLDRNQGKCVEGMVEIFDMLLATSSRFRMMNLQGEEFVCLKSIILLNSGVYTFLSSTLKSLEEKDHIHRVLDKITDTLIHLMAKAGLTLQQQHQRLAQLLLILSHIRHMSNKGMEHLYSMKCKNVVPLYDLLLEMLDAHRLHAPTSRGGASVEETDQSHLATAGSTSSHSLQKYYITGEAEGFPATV

[21] = Luminescence-based cell-based high throughput dose response assay to identify activators of the DAF-12 from the parasite S. stercoralis (ssDAF-12).; assay type: functional
[22] = biological target: T5, Oxysterols receptor LXR-beta; assay type: functional, cell-based
cells [23] = experiment: cells
[24] = biological target: Protein-tyrosine kinase 2-beta (Homo sapiens, UniProt Q14289);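 further: potency of inhibitors of PYK2 kinase phosphorylation of poly-GT substrate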
HT-1080 = experiment: HT1080 cell viability loss – fluorescence readout (AID 620); assay type: functional, cell-based; conditions: Homo sapiens
[25] = biological target: Luciferin 4-monooxygenase (Photinus pyralis, UniProt P08659); experiment: Counter Screen for Luciferase-based Assay Positives. [Related pubchem assays: 620, 618, 411 ]
Luciferin 4-monooxygenase, sequence (P08659 whole entry): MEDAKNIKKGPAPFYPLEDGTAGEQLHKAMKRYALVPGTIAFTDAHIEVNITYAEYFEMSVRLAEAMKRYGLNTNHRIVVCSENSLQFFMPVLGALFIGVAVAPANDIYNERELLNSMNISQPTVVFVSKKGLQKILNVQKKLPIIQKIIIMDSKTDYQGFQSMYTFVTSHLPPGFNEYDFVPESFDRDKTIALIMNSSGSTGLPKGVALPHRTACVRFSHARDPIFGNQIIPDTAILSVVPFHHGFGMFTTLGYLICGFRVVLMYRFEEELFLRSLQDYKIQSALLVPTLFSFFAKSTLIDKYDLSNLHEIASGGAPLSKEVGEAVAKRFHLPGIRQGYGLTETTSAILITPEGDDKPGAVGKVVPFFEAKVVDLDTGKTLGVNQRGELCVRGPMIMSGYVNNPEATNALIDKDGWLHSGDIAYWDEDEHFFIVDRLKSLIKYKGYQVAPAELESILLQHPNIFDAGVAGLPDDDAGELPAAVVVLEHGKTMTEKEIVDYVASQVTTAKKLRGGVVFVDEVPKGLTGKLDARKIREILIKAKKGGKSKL

T4 sequence (P02675 whole entry, the tested form may be a part): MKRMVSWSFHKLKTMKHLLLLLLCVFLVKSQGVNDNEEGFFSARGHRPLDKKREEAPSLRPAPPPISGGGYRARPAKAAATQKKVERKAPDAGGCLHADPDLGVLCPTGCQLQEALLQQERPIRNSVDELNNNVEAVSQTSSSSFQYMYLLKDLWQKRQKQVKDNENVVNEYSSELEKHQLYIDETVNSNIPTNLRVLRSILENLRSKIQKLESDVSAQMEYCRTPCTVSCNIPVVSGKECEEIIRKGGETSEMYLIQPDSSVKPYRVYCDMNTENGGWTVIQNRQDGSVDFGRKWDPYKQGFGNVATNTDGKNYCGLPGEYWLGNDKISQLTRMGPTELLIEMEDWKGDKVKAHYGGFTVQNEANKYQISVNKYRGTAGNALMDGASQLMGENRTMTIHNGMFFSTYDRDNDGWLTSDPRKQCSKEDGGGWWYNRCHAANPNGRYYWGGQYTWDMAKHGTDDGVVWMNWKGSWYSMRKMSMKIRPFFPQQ
Caspase-9, sequence (P55211 1-315 limits assumed): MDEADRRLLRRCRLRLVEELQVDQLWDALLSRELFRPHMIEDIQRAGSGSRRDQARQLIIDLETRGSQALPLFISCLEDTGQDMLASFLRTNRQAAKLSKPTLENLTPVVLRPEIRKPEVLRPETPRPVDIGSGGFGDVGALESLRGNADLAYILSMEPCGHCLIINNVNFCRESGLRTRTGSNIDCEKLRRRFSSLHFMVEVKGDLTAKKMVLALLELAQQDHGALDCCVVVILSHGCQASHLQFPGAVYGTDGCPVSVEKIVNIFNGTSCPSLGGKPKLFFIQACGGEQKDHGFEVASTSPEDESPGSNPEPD
Caspase-9, sequence (P55211 331-416 limits assumed): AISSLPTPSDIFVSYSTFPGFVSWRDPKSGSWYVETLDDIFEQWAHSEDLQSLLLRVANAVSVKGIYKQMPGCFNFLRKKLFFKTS
Glutathione-S-transferase, sequence (Q26513 whole entry): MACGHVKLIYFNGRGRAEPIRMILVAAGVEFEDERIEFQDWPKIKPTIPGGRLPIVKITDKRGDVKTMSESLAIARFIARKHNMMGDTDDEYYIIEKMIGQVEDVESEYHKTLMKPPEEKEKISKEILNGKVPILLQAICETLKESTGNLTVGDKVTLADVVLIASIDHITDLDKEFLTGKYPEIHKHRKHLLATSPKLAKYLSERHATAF
Protein-tyrosine kinase 2-beta, sequence (Q14289 whole entry): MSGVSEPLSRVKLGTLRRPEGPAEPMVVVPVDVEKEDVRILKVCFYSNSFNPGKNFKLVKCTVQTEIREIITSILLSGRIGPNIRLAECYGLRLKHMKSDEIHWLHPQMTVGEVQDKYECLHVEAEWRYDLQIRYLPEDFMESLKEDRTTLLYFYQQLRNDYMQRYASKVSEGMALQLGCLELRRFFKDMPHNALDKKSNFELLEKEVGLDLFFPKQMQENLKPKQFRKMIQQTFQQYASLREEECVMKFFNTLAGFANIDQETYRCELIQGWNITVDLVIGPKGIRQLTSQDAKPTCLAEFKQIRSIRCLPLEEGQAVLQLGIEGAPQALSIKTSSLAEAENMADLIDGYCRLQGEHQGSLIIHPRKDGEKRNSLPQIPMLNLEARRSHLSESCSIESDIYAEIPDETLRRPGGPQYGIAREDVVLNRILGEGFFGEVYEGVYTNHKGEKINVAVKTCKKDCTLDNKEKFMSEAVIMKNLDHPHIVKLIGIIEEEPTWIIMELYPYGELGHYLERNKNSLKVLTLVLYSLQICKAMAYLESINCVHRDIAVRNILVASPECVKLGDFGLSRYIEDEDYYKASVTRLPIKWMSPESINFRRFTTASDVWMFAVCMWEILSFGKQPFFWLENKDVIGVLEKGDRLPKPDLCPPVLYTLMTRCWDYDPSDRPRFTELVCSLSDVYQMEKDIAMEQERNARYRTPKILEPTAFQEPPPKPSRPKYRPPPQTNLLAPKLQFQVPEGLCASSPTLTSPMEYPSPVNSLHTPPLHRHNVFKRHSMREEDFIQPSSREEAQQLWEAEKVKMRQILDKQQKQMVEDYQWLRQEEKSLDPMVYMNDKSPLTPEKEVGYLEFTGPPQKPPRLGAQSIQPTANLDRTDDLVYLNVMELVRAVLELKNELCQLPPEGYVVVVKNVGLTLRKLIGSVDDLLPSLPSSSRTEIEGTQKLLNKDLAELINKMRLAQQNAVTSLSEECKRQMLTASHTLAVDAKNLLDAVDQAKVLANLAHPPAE
RNA-editing ligase 1, mitochondrial, sequence (P86926 whole entry): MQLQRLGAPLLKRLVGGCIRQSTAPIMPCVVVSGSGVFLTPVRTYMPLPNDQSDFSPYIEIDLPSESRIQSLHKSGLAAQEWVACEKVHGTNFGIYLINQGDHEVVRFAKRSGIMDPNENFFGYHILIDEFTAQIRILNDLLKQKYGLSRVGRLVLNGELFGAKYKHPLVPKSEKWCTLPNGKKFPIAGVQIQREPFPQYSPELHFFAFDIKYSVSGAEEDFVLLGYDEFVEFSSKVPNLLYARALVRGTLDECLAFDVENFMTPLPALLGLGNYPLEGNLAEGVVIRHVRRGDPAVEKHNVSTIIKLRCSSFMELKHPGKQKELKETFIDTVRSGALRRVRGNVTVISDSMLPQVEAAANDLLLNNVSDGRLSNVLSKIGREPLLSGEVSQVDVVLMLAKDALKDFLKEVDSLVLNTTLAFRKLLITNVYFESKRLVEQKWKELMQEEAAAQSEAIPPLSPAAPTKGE
Tyrosyl-DNA phosphodiesterase 2, sequence (O95551 whole entry): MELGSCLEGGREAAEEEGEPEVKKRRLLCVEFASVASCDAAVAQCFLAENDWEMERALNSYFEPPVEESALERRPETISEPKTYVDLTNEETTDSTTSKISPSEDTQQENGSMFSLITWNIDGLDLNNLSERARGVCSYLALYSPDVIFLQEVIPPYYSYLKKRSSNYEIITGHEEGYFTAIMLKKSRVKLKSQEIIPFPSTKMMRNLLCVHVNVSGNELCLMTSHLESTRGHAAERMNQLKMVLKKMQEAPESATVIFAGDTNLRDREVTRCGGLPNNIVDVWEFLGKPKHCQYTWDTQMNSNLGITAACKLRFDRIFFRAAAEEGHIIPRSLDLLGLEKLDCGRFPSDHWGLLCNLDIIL
Caspase-7, sequence (P55210 24-198 limits assumed): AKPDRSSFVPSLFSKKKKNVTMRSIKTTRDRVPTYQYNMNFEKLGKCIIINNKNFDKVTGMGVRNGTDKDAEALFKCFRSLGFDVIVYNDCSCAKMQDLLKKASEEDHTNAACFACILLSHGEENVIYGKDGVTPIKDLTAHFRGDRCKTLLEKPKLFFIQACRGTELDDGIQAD
Caspase-7, sequence (P55210 207-303 limits assumed): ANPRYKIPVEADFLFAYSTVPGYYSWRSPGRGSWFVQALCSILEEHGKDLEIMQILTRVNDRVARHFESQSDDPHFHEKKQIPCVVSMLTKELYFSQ
Induced myeloid leukemia cell differentiation protein Mcl-1, sequence (Q07820 whole entry): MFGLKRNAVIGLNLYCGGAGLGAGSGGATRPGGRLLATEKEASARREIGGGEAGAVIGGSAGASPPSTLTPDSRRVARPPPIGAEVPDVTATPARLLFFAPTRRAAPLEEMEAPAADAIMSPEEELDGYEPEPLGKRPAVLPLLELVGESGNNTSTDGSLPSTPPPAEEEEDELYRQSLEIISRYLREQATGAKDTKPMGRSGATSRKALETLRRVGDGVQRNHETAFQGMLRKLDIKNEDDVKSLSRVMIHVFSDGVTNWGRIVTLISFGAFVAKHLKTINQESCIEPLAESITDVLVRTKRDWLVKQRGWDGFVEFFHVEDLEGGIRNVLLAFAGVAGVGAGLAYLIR
Caspase-8, sequence (Q14790 217-374 limits assumed): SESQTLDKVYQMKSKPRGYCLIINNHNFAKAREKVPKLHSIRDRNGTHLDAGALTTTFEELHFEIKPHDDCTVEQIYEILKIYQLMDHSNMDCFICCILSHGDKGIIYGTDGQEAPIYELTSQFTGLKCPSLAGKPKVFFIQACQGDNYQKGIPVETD
Caspase-8, sequence (Q14790 385-479 limits assumed): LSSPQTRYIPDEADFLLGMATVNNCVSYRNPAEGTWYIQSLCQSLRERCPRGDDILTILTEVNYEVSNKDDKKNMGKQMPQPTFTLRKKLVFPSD

Structure (SMILES): O=C1C(Nc2cccc(Cl)c2)=C(N2CCCC2)C(=O)c2ccccc21
- AC50 [1]: > 70 µM (inactive)
- AC50 [2]: > 70 µM (inactive)
- AC50 [3]: 5.52 µM (active)
- AC50 [4]: 8.39 µM (active)
- AC50 [5]: > 70 µM (inactive)
- AC50 [6]: > 70 µM (inactive)
- AC50 [7]: 46.8 µM (active)
- AC50 [8]: > 70 µM (inactive)

Structure (SMILES): CC(=O)Nc1ccc(SCC(=O)c2cc(C)n(-c3ccc(S(N)(=O)=O)cc3)c2C)cc1
- EC50 [9]: 10 µM (active)

Structure (SMILES): O=C(NCCCO)c1ccc2nc(-c3ccco3)c(-c3ccco3)nc2c1
- AC50 (Caspase-6): 13.1 µM (active)
- IC50 [10]: > 100 µM (active)
- IC50 (Genome polyprotein): 86.2 µM (active)
- IC50 [11]: > 128 µM (inactive)
- IC50 [12]: 3.45 µM (not active)
- IC50 [13]: 28.4 µM (inactive)

Structure (SMILES): COc1cc(C)ccc1OCCn1cnc2ccccc21
- AC50 (cells [14]): > 52 µM (inactive)

Structure (SMILES): Nc1cc(N2CCCCC2)nc(N)[n+]1[O-] [MINOXIDIL]
- IC50 [15]: > 33.3 µM (inactive)

Structure (SMILES): CCOc1c(O)ccc(/C=C2\SC(=S)NC2=O)c1[N+](=O)[O-]
- AC50 (Caspase-6): 4.1 µM (active)
- AC50 (Caspase-9): 53.6 µM (active)
- IC50 [16]: > 50 µM (not active)
- IC50 [17]: 15.8 µM (active)
- AC50 (Caspase-8): > 70 µM (inactive)
- AC50 (Caspase-7): 25.5 µM (active)

Structure (SMILES): O=C(COC(=O)c1cc(-c2cccc3ccccc23)nc2ccccc12)NC1CCS(=O)(=O)C1 (stereo not drawn)
- IC50 (Fibrinogen beta chain [18]): > 83.3 µM (inactive)
- IC50 (Fibrinogen beta chain [19]): > 83.3 µM (inactive)

Structure (SMILES): O=C1C(c2ccnc3ccccc23)=C(O)c2ccccc21
- EC50 [20]: > 67.5 µM (inactive)
- EC50 (Estrogen receptor): 6.74 µM (active)
- IC50 [21]: > 67.5 µM (inactive)
- EC50 [22]: > 67.5 µM (inactive)
- EC50 (cells [23]): > 67.5 µM (inactive)
- IC50 [24]: 3.11 µM (active)
- EC50 (HT-1080): > 50 µM (not active)
- EC50 [25]: 0.78 µM (active)
